Source: ChEMBL document CHEMBL4382289, “Synthesis, Biological Evaluation and Structure-Activity Relationships of Diflapolin Analogues as Dual sEH/FLAP Inhibitors” (ACS Med Chem Lett, 2019)

Key:
[1] = target: T1, Bifunctional epoxide hydrolase 2 (Homo sapiens, UniProt P34913); assay: Inhibition of recombinant human sEH preincubated for 10 mins followed by PHOME substrate addition and measured after 60 mins by fluorescence-based assay
T1 sequence (P34913 whole entry): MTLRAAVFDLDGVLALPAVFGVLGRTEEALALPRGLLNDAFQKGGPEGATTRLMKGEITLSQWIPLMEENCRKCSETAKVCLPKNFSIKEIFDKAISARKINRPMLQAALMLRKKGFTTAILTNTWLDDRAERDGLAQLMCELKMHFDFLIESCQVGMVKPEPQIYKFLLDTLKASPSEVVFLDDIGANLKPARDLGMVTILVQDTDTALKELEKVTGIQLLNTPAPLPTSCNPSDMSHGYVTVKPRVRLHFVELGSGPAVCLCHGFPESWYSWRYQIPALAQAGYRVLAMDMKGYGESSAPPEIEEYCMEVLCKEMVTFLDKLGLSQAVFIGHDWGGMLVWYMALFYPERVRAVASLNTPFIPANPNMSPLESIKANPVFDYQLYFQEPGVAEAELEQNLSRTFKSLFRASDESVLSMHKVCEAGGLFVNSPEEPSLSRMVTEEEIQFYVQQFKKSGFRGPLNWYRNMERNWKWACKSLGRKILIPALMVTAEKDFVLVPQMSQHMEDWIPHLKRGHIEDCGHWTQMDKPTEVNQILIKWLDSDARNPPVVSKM

[2] = target: T2, Arachidonate 5-lipoxygenase-activating protein (Homo sapiens, UniProt P20292); assay: Inhibition of 5-LO in human neutrophils preincubated for 10 mins followed by Ca2+ ionophore A23187 addition and measured after 10 mins by RP-HPLC analysis
T2 sequence (P20292 whole entry): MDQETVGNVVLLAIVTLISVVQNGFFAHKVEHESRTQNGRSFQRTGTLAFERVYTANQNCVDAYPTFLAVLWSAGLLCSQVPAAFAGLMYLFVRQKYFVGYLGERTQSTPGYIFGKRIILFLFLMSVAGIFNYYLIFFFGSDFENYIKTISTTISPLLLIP

| SMILES | IC50 [1] | IC50 [2] |
| --- | --- | --- |
| O=C(Nc1ccc(CCc2nc3ccccc3s2)cc1)Nc1ccc(Cl)c(Cl)c1 | 11.7 nM | > 10000 nM |
| Cc1cc(NC(=O)Nc2ccc(Cl)c(Cl)c2)ccc1OCc1nc2ccccc2s1 | 0.6 nM | 2170 nM |
| Cc1cc(OCc2nc3ccccc3s2)ccc1NC(=O)Nc1cc(Cl)cc(Cl)c1 | 20 nM | 80 nM |
| O=C(Nc1ccc(OCc2nc3ccccc3s2)cc1)Nc1cc(Cl)cc(Cl)c1 | 15.2 nM | 90 nM |
| O=C(Nc1ccc(OCc2nc3ccccc3s2)cc1)Nc1ccccc1Cl | 279 nM | 360 nM |
| O=C(Nc1ccc(SCc2nc3ccccc3s2)cc1)Nc1ccc(Cl)c(Cl)c1 | 25.2 nM | 1130 nM |
| O=C(Nc1ccc(OCc2nc3ccccc3s2)cc1)Nc1ccc(Cl)c(Cl)c1 | 10.3 nM | 570 nM |
| O=C(Nc1ccc(/C=C/c2nc3ccccc3s2)cc1)Nc1ccc(Cl)c(Cl)c1 | 9.1 nM | 10800 nM |
| Cc1cc(NC(=O)Nc2cc(Cl)cc(Cl)c2)ccc1OCc1nc2ccccc2s1 | 0.8 nM | 720 nM |
| Cc1cc(NC(=O)Nc2ccccc2Cl)ccc1OCc1nc2ccccc2s1 | 35.1 nM | 680 nM |
| O=C(Nc1ccc(OCc2nc3ccccc3s2)cc1)Nc1cccc(Cl)c1 | 25.9 nM | 170 nM |
| Cc1cc(NC(=O)Nc2ccccc2)ccc1OCc1nc2ccccc2s1 | 6.5 nM | 2070 nM |

Now from value to compound:

| IC50 [1] | IC50 [2] | SMILES |
| --- | --- | --- |
| 23 nM |  | Cc1cc(OCc2nc3ccccc3s2)ccc1NC(=O)Nc1ccc(Cl)c(Cl)c1 |
| 1500 nM | 830 nM | Cc1cc(OCc2nc3ccccc3s2)ccc1NC(=O)Nc1ccccc1Cl |
| 5.2 nM | 570 nM | Cc1cc(OCc2nc3ccccc3s2)ccc1NC(=O)Nc1ccc(Cl)cc1 |
| 15.8 nM | 160 nM | Cc1cc(OCc2nc3ccccc3s2)ccc1NC(=O)Nc1cccc(Cl)c1 |
| 4.1 nM | > 10000 nM | Cc1cc(NC(=O)Nc2ccc(Cl)cc2)ccc1OCc1nc2ccccc2s1 |
| 61.9 nM | 730 nM | Cc1cc(OCc2nc3ccccc3s2)ccc1NC(=O)Nc1ccccc1 |
| 111 nM | 420 nM | O=C(Nc1ccccc1)Nc1ccc(OCc2nc3ccccc3s2)cc1 |
| 13.9 nM | 1010 nM | O=C(Nc1ccc(Cl)cc1)Nc1ccc(OCc2nc3ccccc3s2)cc1 |
| 2 nM | 2090 nM | Cc1cc(NC(=O)Nc2cccc(Cl)c2)ccc1OCc1nc2ccccc2s1 |
